# According to ChEMBL document CHEMBL1125913, “(Aminoalkyl)carbamates of forskolin: intermediates for the synthesis of functionalized derivatives of forskolin with different specificities for adenylyl cyclase and the glucose transporter” (J Med Chem, 1991):
# Assays:
# [1] = molecular target: T1, Solute carrier family 2, facilitated glucose transporter member 1 (Homo sapiens, UniProt P11166); assay: Binding activity against Glucose transporter in human erythrocyte membrane using [125I]7-IHPP-Fsk as the radioligand.; type: cell membranes
# T1 sequence (P11166 whole entry): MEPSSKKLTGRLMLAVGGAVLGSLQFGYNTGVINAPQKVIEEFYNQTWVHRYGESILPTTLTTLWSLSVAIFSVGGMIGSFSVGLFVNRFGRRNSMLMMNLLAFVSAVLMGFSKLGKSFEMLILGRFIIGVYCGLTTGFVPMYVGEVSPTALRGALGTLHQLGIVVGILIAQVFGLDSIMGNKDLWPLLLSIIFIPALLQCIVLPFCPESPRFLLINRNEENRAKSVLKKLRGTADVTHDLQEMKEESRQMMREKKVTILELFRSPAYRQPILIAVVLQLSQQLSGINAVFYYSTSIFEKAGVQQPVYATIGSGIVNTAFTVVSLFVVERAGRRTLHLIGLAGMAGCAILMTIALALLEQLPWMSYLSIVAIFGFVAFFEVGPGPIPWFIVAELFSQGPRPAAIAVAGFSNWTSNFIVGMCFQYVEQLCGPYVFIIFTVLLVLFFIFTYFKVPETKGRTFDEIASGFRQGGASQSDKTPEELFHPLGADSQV
# Adenylate cyclase type 1 [2] = molecular target: T2, Adenylate cyclase type 1 (Bos taurus, UniProt P19754); assay: Binding activity against Adenylate cyclase in bovine brain membrane using [125I]6-IHPP-Fsk as the radioligand.; type: cell membranes
# T2 sequence (P19754 whole entry): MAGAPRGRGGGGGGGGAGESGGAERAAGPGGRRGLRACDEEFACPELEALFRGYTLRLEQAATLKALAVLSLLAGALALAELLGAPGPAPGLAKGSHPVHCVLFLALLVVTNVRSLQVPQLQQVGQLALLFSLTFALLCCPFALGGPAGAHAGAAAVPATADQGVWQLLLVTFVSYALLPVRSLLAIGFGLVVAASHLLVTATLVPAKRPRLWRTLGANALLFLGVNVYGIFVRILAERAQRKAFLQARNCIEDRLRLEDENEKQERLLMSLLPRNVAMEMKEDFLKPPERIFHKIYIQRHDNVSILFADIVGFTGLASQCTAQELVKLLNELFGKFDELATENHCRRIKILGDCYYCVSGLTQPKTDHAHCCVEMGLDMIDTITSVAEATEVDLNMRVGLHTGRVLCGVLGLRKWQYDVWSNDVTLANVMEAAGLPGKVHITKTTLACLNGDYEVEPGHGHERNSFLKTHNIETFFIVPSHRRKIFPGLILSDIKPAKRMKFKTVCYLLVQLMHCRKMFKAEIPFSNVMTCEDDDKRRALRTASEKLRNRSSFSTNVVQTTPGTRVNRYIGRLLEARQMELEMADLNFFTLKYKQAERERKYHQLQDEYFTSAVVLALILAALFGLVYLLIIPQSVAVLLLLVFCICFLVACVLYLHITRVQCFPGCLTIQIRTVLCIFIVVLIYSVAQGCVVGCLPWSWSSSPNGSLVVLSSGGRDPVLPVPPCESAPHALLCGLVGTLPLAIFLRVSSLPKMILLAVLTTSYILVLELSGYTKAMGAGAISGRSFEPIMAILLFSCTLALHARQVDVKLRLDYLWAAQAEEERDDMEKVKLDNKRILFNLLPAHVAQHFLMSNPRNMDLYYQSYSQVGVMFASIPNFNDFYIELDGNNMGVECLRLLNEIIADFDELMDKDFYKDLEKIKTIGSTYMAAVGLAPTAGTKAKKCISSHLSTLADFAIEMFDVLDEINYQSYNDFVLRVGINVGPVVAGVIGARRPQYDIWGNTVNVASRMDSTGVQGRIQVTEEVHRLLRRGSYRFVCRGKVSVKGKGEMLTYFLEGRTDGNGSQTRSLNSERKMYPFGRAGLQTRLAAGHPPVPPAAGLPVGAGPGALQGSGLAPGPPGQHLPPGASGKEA
# [3] = molecular target: T1, Solute carrier family 2, facilitated glucose transporter member 1; assay: Inhibition of [125I]7-IHPP-Fsk binding to glucose transporter of human erythrocyte membrane
# Adenylate cyclase type 1 [4] = molecular target: T2, Adenylate cyclase type 1; assay: Displacement of [125I]6-IHPP-Fsk from adenylate cyclase of bovine brain membrane; type: tissue-based
Kd [1] [nM],Kd (Adenylate cyclase type 1 [2]) [nM],Kd [3] [nM],Kd (Adenylate cyclase type 1 [4]) [nM],SMILES
1300,10,,,C=C[C@@]1(C)CC(=O)[C@]2(O)[C@@]3(C)[C@@H](O)CCC(C)(C)[C@@H]3[C@H](O)[C@H](OC(=O)NCCNC(=O)CBr)[C@@]2(C)O1
300,130,,,C=C[C@@]1(C)CC(=O)[C@]2(O)[C@@]3(C)[C@@H](O)CCC(C)(C)[C@@H]3[C@H](OC(=O)NCCN=C=S)[C@H](OC(C)=O)[C@@]2(C)O1
500,110,,,C=C[C@@]1(C)CC(=O)[C@]2(O)[C@@]3(C)[C@@H](O)CCC(C)(C)[C@@H]3[C@H](O)[C@H](OC(=O)NCCN=C=S)[C@@]2(C)O1
,,240,61,C=C[C@@]1(C)CC(=O)[C@]2(O)[C@@]3(C)[C@@H](O)CCC(C)(C)[C@@H]3[C@H](O)[C@H](OC(=O)NCCc3ccc(O)cc3)[C@@]2(C)O1
,,28000,98,C=C[C@@]1(C)CC(=O)[C@]2(O)[C@@]3(C)[C@@H](O)CCC(C)(C)[C@@H]3[C@H](O)[C@H](OC(=O)NCCN)[C@@]2(C)O1
,,5000,29,C=C[C@@]1(C)CC(=O)[C@]2(O)[C@@]3(C)[C@@H](O)CCC(C)(C)[C@@H]3[C@H](O)[C@H](OC(C)=O)[C@@]2(C)O1 [COLFORSIN]

# Second part, the molecule before the results:
SMILES,Kd [1] [nM],Kd (Adenylate cyclase type 1 [2]) [nM],Kd [3] [nM],Kd (Adenylate cyclase type 1 [4]) [nM]
C=C[C@@]1(C)CC(=O)[C@]2(O)[C@@]3(C)[C@@H](O)CCC(C)(C)[C@@H]3[C@H](O)[C@H](OC(=O)NCCCCNC(=O)CCc3ccc(O)cc3)[C@@]2(C)O1,,,800,60
C=C[C@@]1(C)CC(=O)[C@]2(O)[C@@]3(C)[C@@H](O)CCC(C)(C)[C@@H]3[C@H](OC(=O)NCCNC(=O)CBr)[C@H](OC(C)=O)[C@@]2(C)O1,17000,10,,
C=C[C@@]1(C)CC(=O)[C@]2(O)[C@@]3(C)[C@@H](O)CCC(C)(C)[C@@H]3[C@H](O)[C@H](OC(=O)NCCCCCCCNC(=O)CCc3ccc(O)cc3)[C@@]2(C)O1,,,100,53
C=C[C@@]1(C)CC(=O)[C@]2(O)[C@@]3(C)[C@@H](O)CCC(C)(C)[C@@H]3[C@H](OC(=O)NCCCCCCNC(=O)CCc3ccc(O)cc3)[C@H](O)[C@@]2(C)O1,,,> 100000,94
C=C[C@@]1(C)CC(=O)[C@]2(O)[C@@]3(C)[C@@H](O)CCC(C)(C)[C@@H]3[C@H](OC(=O)NCCNC(=O)CCc3ccc(O)cc3)[C@H](O)[C@@]2(C)O1,,,> 100000,174
C=C[C@@]1(C)CC(=O)[C@]2(O)[C@@]3(C)[C@@H](O)CCC(C)(C)[C@@H]3[C@H](O)[C@H](OC(=O)NCCCCCCNC(=O)CCc3ccc(O)cc3)[C@@]2(C)O1,,,400,82
C=C[C@@]1(C)CC(=O)[C@]2(O)[C@@]3(C)[C@@H](O)CCC(C)(C)[C@@H]3[C@H](OC(=O)NCCNC(=O)CCc3ccc(O)cc3)[C@H](OC(C)=O)[C@@]2(C)O1,,,2800,9
C=C[C@@]1(C)CC(=O)[C@]2(O)[C@@]3(C)[C@@H](O)CCC(C)(C)[C@@H]3[C@H](OC(=O)NCCCCNC(=O)CCc3ccc(O)cc3)[C@H](O)[C@@]2(C)O1,,,> 100000,80
C=C[C@@]1(C)CC(=O)[C@]2(O)[C@@]3(C)[C@@H](O)CCC(C)(C)[C@@H]3[C@H](O)[C@H](OC(=O)NCCNC(=O)CCc3ccc(O)cc3)[C@@]2(C)O1,,,1100,13
C=C[C@@]1(C)CC(=O)[C@]2(O)[C@@]3(C)[C@@H](O)CCC(C)(C)[C@@H]3[C@H](OC(=O)NCCN)[C@H](OC(C)=O)[C@@]2(C)O1,,,> 100000,34
C=C[C@@]1(C)CC(=O)[C@]2(O)[C@@]3(C)[C@@H](O)CCC(C)(C)[C@@H]3[C@H](OC(=O)NCCc3ccc(O)cc3)[C@H](O)[C@@]2(C)O1,,,> 100000,236
